# Measured values published in patent publication US11793849B2, “Method of Chinese herbal medicine extract used for treating multiple diseases caused by drug resistant bacteria infection” (priority 2016, dated 2023).
# Where two headings read alike, the source gives them in different places.
# Tested on: MDRAB
# Experiment: MIC determination, microdilution broth method
# Format: cell-based, Acinetobacter baumannii
# [1] = single use, 20 MDRABs, EA=10% ethanol extract
# [2] = single use, 20 MDRABs, EA=water extract
# [3] = single use, 20 MDRABs, section of the 95% ethanol extract
# Experimental: Determination methods of a Minimal Inhibitory Concentration (MIC) and a Minimum Bactericidal Concentration (MBC) of a test product: the MIC and the MBC of the Pithecellobium clypearia Benth water or ethanol extract to the MDRAB are determined by a microdilution broth method. And it is operated by referring to the microdilution broth method recommended by National Committee for Clinical Laboratory Standards (NCCLS).
structure (smiles),measurement,setting,value
"C[C@H]1COc2c(N3CCN(C)CC3)c(F)cc3c(=O)c(C(=O)O)cn1c23 [LVX, Levofloxacin]",MIC,"Acinetobacter baumannii, strain A6, EA=60% ethanol extract, read-out: MIC",8 µg/mL
same,MIC,"Acinetobacter baumannii, strain A6, EA=95% ethanol extract, read-out: MIC",8 µg/mL
same,MIC,"Acinetobacter baumannii, strain A6, EA=P. clypearia 95% ethanol extract, read-out: single-use MIC",8 µg/mL
same,MIC,"Acinetobacter baumannii, strain A6, single use, EA=10% ethanol extract, read-out: MIC",8 µg/mL
same,MIC,"Acinetobacter baumannii, strain A6, single use, EA=water extract, read-out: MIC",8 µg/mL
same,MIC,"Acinetobacter baumannii, strain A7, EA=60% ethanol extract, read-out: MIC",8 µg/mL
same,MIC,"Acinetobacter baumannii, strain A7, EA=95% ethanol extract, read-out: MIC",8 µg/mL
same,MIC,"Acinetobacter baumannii, strain A7, EA=P. clypearia 95% ethanol extract, read-out: single-use MIC",8 µg/mL
same,MIC,"Acinetobacter baumannii, strain A7, single use, EA=10% ethanol extract, read-out: MIC",8 µg/mL
same,MIC,"Acinetobacter baumannii, strain A7, single use, EA=water extract, read-out: MIC",8 µg/mL
same,MIC,"Acinetobacter baumannii, strain A8, EA=60% ethanol extract, read-out: MIC",4 µg/mL
same,MIC,"Acinetobacter baumannii, strain A8, EA=95% ethanol extract, read-out: MIC",4 µg/mL
same,MIC,"Acinetobacter baumannii, strain A8, EA=P. clypearia 95% ethanol extract, read-out: single-use MIC",4 µg/mL
same,MIC,"Acinetobacter baumannii, strain A8, single use, EA=10% ethanol extract, read-out: MIC",4 µg/mL
same,MIC,"Acinetobacter baumannii, strain A8, single use, EA=water extract, read-out: MIC",4 µg/mL
same,MIC,"Acinetobacter baumannii, strain A9, EA=60% ethanol extract, read-out: MIC",4 µg/mL
same,MIC,"Acinetobacter baumannii, strain A9, EA=95% ethanol extract, read-out: MIC",4 µg/mL
same,MIC,"Acinetobacter baumannii, strain A9, EA=P. clypearia 95% ethanol extract, read-out: single-use MIC",4 µg/mL
same,MIC,"Acinetobacter baumannii, strain A9, single use, EA=10% ethanol extract, read-out: MIC",4 µg/mL
same,MIC,"Acinetobacter baumannii, strain A9, single use, EA=water extract, read-out: MIC",4 µg/mL
same,MIC,"Acinetobacter baumannii, strain A10, EA=60% ethanol extract, read-out: MIC",32 µg/mL
same,MIC,"Acinetobacter baumannii, strain A10, EA=95% ethanol extract, read-out: MIC",32 µg/mL
same,MIC,"Acinetobacter baumannii, strain A10, EA=P. clypearia 95% ethanol extract, read-out: single-use MIC",32 µg/mL
same,MIC,"Acinetobacter baumannii, strain A10, single use, EA=10% ethanol extract, read-out: MIC",32 µg/mL
same,MIC,"Acinetobacter baumannii, strain A10, single use, EA=water extract, read-out: MIC",32 µg/mL
same,MIC,"Acinetobacter baumannii, strain A11, EA=60% ethanol extract, read-out: MIC",4 µg/mL
same,MIC,"Acinetobacter baumannii, strain A11, EA=95% ethanol extract, read-out: MIC",4 µg/mL
same,MIC,"Acinetobacter baumannii, strain A11, EA=P. clypearia 95% ethanol extract, read-out: single-use MIC",4 µg/mL
same,MIC,"Acinetobacter baumannii, strain A11, single use, EA=10% ethanol extract, read-out: MIC",4 µg/mL
same,MIC,"Acinetobacter baumannii, strain A11, single use, EA=water extract, read-out: MIC",4 µg/mL
same,MIC,"Acinetobacter baumannii, strain A12, EA=60% ethanol extract, read-out: MIC",32 µg/mL
same,MIC,"Acinetobacter baumannii, strain A12, EA=95% ethanol extract, read-out: MIC",32 µg/mL
same,MIC,"Acinetobacter baumannii, strain A12, EA=P. clypearia 95% ethanol extract, read-out: single-use MIC",32 µg/mL
same,MIC,"Acinetobacter baumannii, strain A12, single use, EA=10% ethanol extract, read-out: MIC",32 µg/mL
same,MIC,"Acinetobacter baumannii, strain A12, single use, EA=water extract, read-out: MIC",32 µg/mL
same,MIC,"Acinetobacter baumannii, strain A13, EA=60% ethanol extract, read-out: MIC",32 µg/mL
same,MIC,"Acinetobacter baumannii, strain A13, EA=95% ethanol extract, read-out: MIC",32 µg/mL
same,MIC,"Acinetobacter baumannii, strain A13, EA=P. clypearia 95% ethanol extract, read-out: single-use MIC",32 µg/mL
same,MIC,"Acinetobacter baumannii, strain A13, single use, EA=10% ethanol extract, read-out: MIC",32 µg/mL
same,MIC,"Acinetobacter baumannii, strain A13, single use, EA=water extract, read-out: MIC",32 µg/mL
same,MIC,"Acinetobacter baumannii, strain A14, EA=60% ethanol extract, read-out: MIC",16 µg/mL
same,MIC,"Acinetobacter baumannii, strain A14, EA=95% ethanol extract, read-out: MIC",16 µg/mL
same,MIC,"Acinetobacter baumannii, strain A14, EA=P. clypearia 95% ethanol extract, read-out: single-use MIC",16 µg/mL
same,MIC,"Acinetobacter baumannii, strain A14, single use, EA=10% ethanol extract, read-out: MIC",16 µg/mL
same,MIC,"Acinetobacter baumannii, strain A14, single use, EA=water extract, read-out: MIC",16 µg/mL
same,MIC,"Acinetobacter baumannii, strain A15, EA=60% ethanol extract, read-out: MIC",32 µg/mL
same,MIC,"Acinetobacter baumannii, strain A15, EA=95% ethanol extract, read-out: MIC",32 µg/mL
same,MIC,"Acinetobacter baumannii, strain A15, EA=P. clypearia 95% ethanol extract, read-out: single-use MIC",32 µg/mL
same,MIC,"Acinetobacter baumannii, strain A15, single use, EA=10% ethanol extract, read-out: MIC",32 µg/mL
same,MIC,"Acinetobacter baumannii, strain A15, single use, EA=water extract, read-out: MIC",32 µg/mL
same,MIC,"Acinetobacter baumannii, strain A16, EA=60% ethanol extract, read-out: MIC",8 µg/mL
same,MIC,"Acinetobacter baumannii, strain A16, EA=95% ethanol extract, read-out: MIC",8 µg/mL
same,MIC,"Acinetobacter baumannii, strain A16, EA=P. clypearia 95% ethanol extract, read-out: single-use MIC",8 µg/mL
same,MIC,"Acinetobacter baumannii, strain A16, single use, EA=10% ethanol extract, read-out: MIC",8 µg/mL
same,MIC,"Acinetobacter baumannii, strain A16, single use, EA=water extract, read-out: MIC",8 µg/mL
same,MIC,"Acinetobacter baumannii, strain A17, EA=60% ethanol extract, read-out: MIC",16 µg/mL
same,MIC,"Acinetobacter baumannii, strain A17, EA=95% ethanol extract, read-out: MIC",16 µg/mL
same,MIC,"Acinetobacter baumannii, strain A17, EA=P. clypearia 95% ethanol extract, read-out: single-use MIC",16 µg/mL
same,MIC,"Acinetobacter baumannii, strain A17, single use, EA=10% ethanol extract, read-out: MIC",16 µg/mL
same,MIC,"Acinetobacter baumannii, strain A17, single use, EA=water extract, read-out: MIC",16 µg/mL
same,MIC,"Acinetobacter baumannii, strain A18, EA=60% ethanol extract, read-out: MIC",8 µg/mL
same,MIC,"Acinetobacter baumannii, strain A18, EA=95% ethanol extract, read-out: MIC",8 µg/mL
same,MIC,"Acinetobacter baumannii, strain A18, EA=P. clypearia 95% ethanol extract, read-out: single-use MIC",8 µg/mL
same,MIC,"Acinetobacter baumannii, strain A18, single use, EA=10% ethanol extract, read-out: MIC",8 µg/mL
same,MIC,"Acinetobacter baumannii, strain A18, single use, EA=water extract, read-out: MIC",8 µg/mL
same,MIC,"Acinetobacter baumannii, strain A19, EA=60% ethanol extract, read-out: MIC",16 µg/mL
same,MIC,"Acinetobacter baumannii, strain A19, EA=95% ethanol extract, read-out: MIC",16 µg/mL
same,MIC,"Acinetobacter baumannii, strain A19, EA=P. clypearia 95% ethanol extract, read-out: single-use MIC",16 µg/mL
same,MIC,"Acinetobacter baumannii, strain A19, single use, EA=10% ethanol extract, read-out: MIC",16 µg/mL
same,MIC,"Acinetobacter baumannii, strain A19, single use, EA=water extract, read-out: MIC",16 µg/mL
same,MIC,"Acinetobacter baumannii, strain A20, EA=60% ethanol extract, read-out: MIC",16 µg/mL
same,MIC,"Acinetobacter baumannii, strain A20, EA=95% ethanol extract, read-out: MIC",16 µg/mL
same,MIC,"Acinetobacter baumannii, strain A20, EA=P. clypearia 95% ethanol extract, read-out: single-use MIC",16 µg/mL
same,MIC,"Acinetobacter baumannii, strain A20, single use, EA=10% ethanol extract, read-out: MIC",16 µg/mL
same,MIC,"Acinetobacter baumannii, strain A20, single use, EA=water extract, read-out: MIC",16 µg/mL
same,MIC,"Acinetobacter baumannii, strain AS, EA=P. clypearia 95% ethanol extract, read-out: single-use MIC",4 µg/mL
same,MIC50,"Acinetobacter baumannii, single use, 20 MDRABs, section of the 60% ethanol extract, read-out: MIC50",8 µg/mL
same,MIC90,"Acinetobacter baumannii, single use, 20 MDRABs, section of the 60% ethanol extract, read-out: MIC90",32 µg/mL
same,MIC50,"MDRABs, EA=60% ethanol extract",8 µg/mL
same,MIC90,"MDRABs, EA=60% ethanol extract",32 µg/mL
same,MIC Range,"MDRABs, EA=60% ethanol extract",0.5 to 32 µg/mL
same,MIC50,"MDRABs, EA=95% ethanol extract",8 µg/mL
same,MIC90,"MDRABs, EA=95% ethanol extract",32 µg/mL
same,MIC Range,"MDRABs, EA=95% ethanol extract",0.5 to 32 µg/mL
same,MIC50,[1],8 µg/mL
same,MIC90,[1],32 µg/mL
same,MIC Range,[1],0.5 to 32 µg/mL
same,MIC50,[2],8 µg/mL
same,MIC90,[2],32 µg/mL
same,MIC Range,[2],0.5 to 32 µg/mL
same,MIC50,[3],8 µg/mL
same,MIC90,[3],32 µg/mL
